The source of these data is ChEMBL document CHEMBL1126536, “Synthesis and antimalarial evaluation of 2,3,5-trioxabicyclo[2.2.3]nonane, a model for the putative pharmacophore of artemisinin” (Bioorg Med Chem Lett, 1993).

A word on the IC50: it is the concentration that gives 50% inhibition. Usually IC10 stands for the point of the concentration-response curve where the effect stands at 10%. One may read the IC90 as the point of the concentration-response curve where the effect stands at 90%.

Values after ≈ are worked out from the molar mass of the structure shown.

In experiment [1] the test system is Plasmodium falciparum. Nature of the experiment: (§1) Inhibitory concentration against chloroquine-sensitive Plasmodium falciparum D-8. The experiment is classed as functional, organism-based.
The subject of experiment [2] is Plasmodium falciparum. Described as §1. The experiment is classed as functional.
The subject of experiment [3] is Plasmodium falciparum. Nature of the experiment: (§2) Inhibitory concentration against […] Plasmodium falciparum W-2. The experiment is classed as functional.
Experiment [4] concerns Plasmodium falciparum. Described as §2. The experiment is classed as functional, organism-based.
The test system of experiment [5] is Plasmodium falciparum. Nature of the experiment: Inhibitory concentration against […] Plasmodium falciparum W2. In kind it is functional.
The mark [6] stands for this setting: Plasmodium falciparum, read-out: IC50.
Setting [7] is: Plasmodium falciparum, read-out: IC10.
[8] abbreviates: Plasmodium falciparum, read-out: IC90.

As to `C1CC2COC(C1)OO2` (stereo unspecified), in experiment [1] (setting [6]), the IC50 stood at 2.45 µg/mL (≈ 18.8 µM). Besides, in experiment [2] (setting [7]), the IC10 is 1.34 µg/mL (≈ 10.3 µM). Moreover, the 90% effect concentration (IC90) in experiment [2] (setting [8]) was 4.47 µg/mL (≈ 34.3 µM).
Turning to `COC1CCCC(OO)CO1` (single isomer, unassigned; isomer A), the IC10 in experiment [3] was determined as 3.33249 µg/mL (≈ 20.5 µM); in experiment [2] (setting [7]), 2.46 µg/mL (≈ 15.2 µM). In addition, the IC50 in experiment [1] (setting [6]) was determined as 7.49 µg/mL (≈ 46.2 µM); in experiment [4], 6.52488 µg/mL (≈ 40.2 µM). The IC90 in experiment [5] (setting [8]) amounted to 12.8 µg/mL (≈ 78.8 µM); in experiment [2] (setting [8]) it was 22.8 µg/mL (≈ 141 µM).
In the case of `COC1CCCC(OO)CO1` (stereo in doubt), the results for the IC10 in experiment [3] and in experiment [2] were 11.4131 µg/mL (≈ 70.4 µM) and 2.65375 µg/mL (≈ 16.4 µM), respectively. The IC50 in experiment [1] is 10.0532 µg/mL (≈ 62 µM); in experiment [4], 15.45681 µg/mL (≈ 95.3 µM). In addition, the IC90 in experiment [5] stood at 20.93322 µg/mL (≈ 129 µM); in experiment [2], 38.08448 µg/mL (≈ 235 µM).
Regarding `C[C@@H]1CC[C@H]2[C@@H](C)C(=O)O[C@@H]3O[C@@]4(C)CC[C@@H]1[C@]32OO4` [ARTEMISININ], the IC10 is 0.00049 µg/mL (≈ 0.00174 µM) in experiment [3] (setting [7]) and 0.00032 µg/mL (≈ 0.00113 µM) in experiment [2] (setting [7]). The results for the IC50 in experiment [1] (setting [6]) and in experiment [4] (setting [6]) were 0.00083 µg/mL (≈ 0.00294 µM) and 0.00072 µg/mL (≈ 0.00255 µM), respectively. The IC90 in experiment [5] (setting [8]) was 0.00105 µg/mL (≈ 0.00372 µM); in experiment [2] (setting [8]), 0.00213 µg/mL (≈ 0.00754 µM).
As to `CCN(CC)CCCC(C)Nc1ccnc2cc(Cl)ccc12` (stereo unspecified) [CHLOROQUINE], the IC10 was 0.0527 µg/mL (≈ 0.165 µM) in experiment [3] (setting [7]) and 0.00201 µg/mL (≈ 0.00628 µM) in experiment [2] (setting [7]). Also, the concentration for an effect of 90% (IC90) was found to be 0.0931 µg/mL (≈ 0.291 µM) in experiment [5] (setting [8]) and 0.00361 µg/mL (≈ 0.0113 µM) in experiment [2] (setting [8]).
`OC(c1cc(C(F)(F)F)nc2c(C(F)(F)F)cccc12)C1CCCCN1` (stereo unspecified) [MEFLOQUINE]: the figures for the IC10 in experiment [3] (setting [7]) and in experiment [2] (setting [7]) were 0.00117 µg/mL (≈ 0.00309 µM) and 0.00122 µg/mL (≈ 0.00322 µM), respectively. In addition, the IC50 is 0.00686 µg/mL (≈ 0.0181 µM) in experiment [1] (setting [6]) and 0.00209 µg/mL (≈ 0.00552 µM) in experiment [4] (setting [6]). In addition, the IC90 was determined as 0.00373 µg/mL (≈ 0.00986 µM) in experiment [5] (setting [8]) and 0.0385 µg/mL (≈ 0.102 µM) in experiment [2] (setting [8]).
